Assays:
[1] = system: U87 cells; test: Autophagy, MDC staining, U87; type: cell-based, human; settings: 24 h
Protocol: Given that pentacyclic triterpenoids can induce tumor cell death not only by the apoptotic pathway but also by triggering autophagy, we next studied whether 12 stimulated autophagy in glioblastoma cells. For this, U87 and U118 cells were incubated with tryptamide 12 at toxic concentrations (2 or 4 µM) for 24 h followed by cell staining with monodansylcadaverine (MDC), a fluorescent dye specifically labeling autophagosomes. […] Considering that autophagy can be associated not only with cell death but also with cytoprotection, its role in the cytotoxicity of 12 in glioblastoma cells was further studied.
To evaluate the ability of 12 to induce autophagy, U87 and U118 cells were seeded at 2.8 × 10^5 cells/well in 6-well plates and incubated under standard conditions overnight followed by their treatment with 12 in amounts of 2 and 4 μM for 24 h. Then, the cells were collected and washed with PBS as described above and resuspended in 500 µL of PBS containing monodancylcadaverine (MDC) at 50 μM. After incubation for 15 min under standard conditions, the cells were washed with PBS and analyzed by flow cytometry. For each sample, 10,000 events were acquired.

[2] = system: U118 cells; test: Mitochondrial membrane potential, JC-1; type: cell-based, human; settings: for percentage of U118 cells with collapsed ΔψM: 12 at 4 µM, JC-1, control 4.7%
Protocol: It is known that structural analogs of compound 12, such as SM, bardoxolone methyl and CDDO-Im, trigger the mitochondrial pathway of apoptosis in tumor cells, leading to significant dissipation of mitochondrial membrane potential (ΔψM). To evaluate the ability of 12 to affect ΔψM in glioblastoma cells, U118 cells were incubated with 12 (4 µM) for 6 and 24 h and stained with JC-1, a fluorescent probe accumulated either within highly polarized mitochondria emitting red fluorescence (JC-1 aggregates) or in cytoplasm, in the case of low ΔψM (JC-1 monomers, green fluorescence).
[…] were cultured in 6-well plates for 24 h, incubated overnight under standard conditions and treated with 12 at 4 μM for 6 and 24 h. Thereafter, the cells were harvested, resuspended at 10^6 cell/mL in JC-1-containing PBS (5 µg/mL) and incubated under standard conditions for 30 min followed by the washing of the cells with PBS and flow cytometry analysis. In total, 10,000 events were acquired for each sample.

[3] = system: U87 cells; test: MTT cytotoxicity assay, U87; type: cell-based; settings: Homo sapiens, U-87 MG, 24 h, read-out: IC50, Glioblastoma, U87
Protocol: To evaluate the antitumor activity of the synthesized soloxolone amides in brain tumor cells, the cytotoxicity of compounds 4–12, predicted as BBB-permeable (Figure 3), was further analyzed in human glioblastoma U87 and U118 cells, as well as human neuroblastoma KELLY and murine neuroblastoma Neuro2a cells.
The cells in the exponential growth phase were seeded in quadruplicate in 96-well plates at a density of 1 × 10^4 cells/well for HeLa, U87, U118, KELLY and Neuro2a cells; 1.5 × 10^4 cells/well for HuTu-80 cells; 2 × 10^4 cells/well for B16 cells; and 7 × 10^3 cells/well for hFF3 fibroblasts. Cells were incubated under standard conditions overnight followed by their treatment with the investigated compounds (1–20 µM) for 24 h. Then, 10 µL of MTT solution was added to the cells to a final concentration of 0.5 mg/mL and plates were placed under standard conditions for 3 h followed by an aspiration of MTT-containing medium and a dissolution of formazan crystals with 100 µL of DMSO. The absorbance of each well was read at test and reference wavelengths of 570 and 620 nm, respectively, on a Multiscan RC plate reader (Thermo LabSystems, Helsinki, Finland).

[4] = system: U118 glioblastoma cells; test: Annexin V-APC/PI apoptosis assay, U118; type: cell-based, human; settings: for apoptosis, % of U118 cells: 12 at 4 µM
Protocol: To quantify the percentage of cells undergoing apoptosis, glioblastoma U87 and U118 cells were seeded in 6-well plates at 2.8 × 10^5 cells/well in complete growth medium and incubated at standard conditions overnight followed by treatment with 12 at 4 µM for 24 h. Thereafter, the cells were harvested by trypsinization (TrypLE Express (Gibco, USA)) and centrifugation at 400 g for 5 min, washed with PBS and stained with 5 µL of Annexin V-APC (Sony Biotechnology Inc., San Jose, CA, USA) and 10 µL of propidium iodide (PI) (Invitrogen, Waltham, MA, USA) for 15 min at room temperature in the dark. After the incubation time, the cells were analyzed using a NovoCyte Flow Cytometer (ACEA Biosciences Inc., San Diego, CA, USA). For each sample, 10,000 events were acquired.

[5] = system: U118 cells; test: Trans-well motility (CIM-Plate, xCELLigence); type: cell-based, human; settings: U118, 12 at 100 nM, starting after 20 h
Protocol: To evaluate the ability of tryptamide 12 to suppress the migration potential of glioblastoma cells, two independent approaches were undertaken, including assessment of cell movement on a 2D surface (scratch assay) and through a trans-well membrane (CIM-Plate).
To assess the trans-well motility of glioblastoma cells, U118 cells were seeded in quadruplicate at 2 × 10^4 cells/well in the upper chamber of a CIM-Plate in FBS-free DMEM in the presence or absence of 12 at 100 nM. To induce trans-well motility of the cells, DMEM containing 10% FBS was placed in the lower chamber of the CIM-Plate. After that, the electrical impedance of the sensor electrodes mounted at the lower side of the porous membrane separating the upper and lower chambers of the CIM-plate was further measured using an xCELLigence RTCA DP instrument (ACEA Biosciences Inc., San Diego, CA, USA) every 1 h for 48 h.

[6] = system: caspase-3 and -7; test: Caspase-3/-7 activation (CellEvent reagent, flow cytometry); type: cell-based, human; settings: U87 cells
Protocol: To double check the pro-apoptotic activity of 12, its effect on the activation of executioner caspase-3 and -7, key markers of apoptosis, was evaluated in glioblastoma U87 cells.
U87 cells were plated at a density of 2.8 × 10^5 cells/well in 6-well plates and treated with 12 at 2 and 4 μM for 6 and 24 h. Then, the cells were collected by trypsinization and centrifugation, washed with PBS and stained with CellEvent™ Caspase-3/7 Green ReadyProbes™ Reagent (Molecular Probes, Eugene, OR, USA) according to the manufacturer’s manual. Briefly, harvested cells were resuspended in 200 μL of PBS containing the reagent (1 drop/mL) and incubated for 30 min at room temperature. After that, flow cytometry analysis of the cells was performed using the NovoCyte Flow Cytometer. In total, 10,000 events were acquired for each sample.

[7] = system: U87 cells; test: Colony formation assay, U87; type: cell-based, human; settings: for decrease of surface area covered by cell colonies compared to the control: 14 days

With `CC1(C)C(=O)C(C#N)=C[C@]2(C)C3=CC(=O)[C@@H]4[C@@H]5C[C@@](C)(C(=O)NCCc6c[nH]c7ccccc67)CC[C@]5(C)CC[C@@]4(C)[C@]3(C)CC[C@@H]12` [compound 12] the “MDC-positive cells, U87” value ([1]; 12 at 2 µM) was 19.57%, the “MDC-positive cells, U87” value ([1]; 12 at 4 µM) was 31.95% and the “percentage of U118 cells with collapsed ΔψM” value ([2]; 6 h) was 7.5%. For the same compound, the “percentage of U118 cells with collapsed ΔψM” value ([2]; 24 h) was 20.4%, the JC-1 aggregate/monomer ratios ([2]; U118, 12 at 4 µM) was “significantly reduced” and the IC50 [3] was 1.9 ± 0.1 µM. The “apoptosis, % of U118 cells” value ([4]; 6 h) was 11.7%, the “apoptosis, % of U118 cells” value ([4]; 18 h) was 34.4% and the “apoptosis, % of U118 cells” value ([4]; 24 h) was 41.5%. For the same compound, the “number of necrotic cells” value ([4]; U118, different samples (2 and 4 µM; 6–24 h)) was ≤ 10%, the “ability of cells to cross the porous membrane of the CIM-Plate” value [5] was “significantly suppressed” and the “activation of caspase-3 and -7” value [6] was “effectively activated caspase-3 and -7 in a time-dependent manner”. The “decrease of surface area covered by cell colonies compared to the control” value ([7]; U87, 12 at 200 nM) was 2.1 fold, the “decrease of surface area covered by cell colonies compared to the control” value ([7]; U87, 12 at 500 nM) was 2.4 fold and the “inhibitory effect on clonogenic growth” value ([7]; U87, 12 at 50 and 100 nM) was “statistically insignificant”.

From paper PMC9145754, “Novel Soloxolone Amides as Potent Anti-Glioblastoma Candidates: Design, Synthesis, In Silico Analysis and Biological Activities In Vitro and In Vivo” (Pharmaceuticals, 2022)
